According to patent US20130143929A1, “FUNGICIDAL IMIDAZOLES” (EI DU PONT DE NEMOURS AND COMPANY, priority 2010, published 2013):
Marks after values point to notes of the source that are not given here.

Tests used:
Format in all cases: in vivo
[1] = test system: Botrytis cinerea (the causal agent of tomato Botrytis); experiment: Test C: tomato Botrytis, preventive spray on tomato seedlings, visual disease rating; conditions: tomato Botrytis, preventive spray on tomato seedlings
Outline: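 Test suspension (acetone/water with 250 ppm Trem 014; 200 ppm equivalent to 800 g/ha) sprayed to run-off on tomato seedlings; B. cinerea spores inoculated next day. After 48 h saturated humidity at 20° C then 3 days at 24° C, disease rated visually as % control relative to untreated controls (0–100).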

[2] = test system: Septoria tritici (the causal agent of wheat leaf blotch); experiment: Test B: wheat leaf blotch, preventive spray on wheat seedlings, visual disease rating; conditions: wheat leaf blotch, preventive spray on wheat seedlings
Outline: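 Wheat seedlings sprayed to run-off with compound suspension (acetone/water with 250 ppm Trem 014; 200 ppm ≈ 800 g/ha, some at 40 ppm), inoculated next day with Septoria tritici spores. 48 h saturated humidity at 24 °C, then 19 days at 20 °C; visual rating, 100 = full control.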

[3] = test system: Blumeria graminis f. sp. tritici (also known as Erysiphe graminis f. sp. tritici, the causal agent of wheat powdery mildew); experiment: Test D: wheat powdery mildew, preventive spray on wheat seedlings, visual disease rating; conditions: wheat powdery mildew, preventive spray on wheat seedlings
Outline: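 Compound suspended in acetone/water (50/50) with 250 ppm Trem 014 and sprayed to run-off on wheat seedlings (200 ppm ≈ 800 g/ha), then inoculated next day with spore dust. Disease rated visually after 8 days at 20 °C as % control relative to untreated plants (0-100).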

[4] = test system: Puccinia recondite f. sp. tritici (the causal agent of wheat leaf rust); experiment: Test A: wheat leaf rust, preventive spray on wheat seedlings, visual disease rating; conditions: wheat leaf rust, preventive spray on wheat seedlings
Outline: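 Wheat seedlings were sprayed to run-off with compound suspended in acetone/water containing 250 ppm Trem 014 (200 ppm ≈ 800 g/ha; some at 40 ppm). Puccinia recondite spores were inoculated the next day. Plants were held 24 h saturated at 20° C, then 7 days at 20° C, and disease control was rated visually on a 0–100 scale against controls.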

[5] = asterisk: 40 ppm test suspension
[6] = no asterisk (standard test suspension concentration, not 40 ppm)

SMILES	Test C rating (100 = 100% disease control, 0 = no disease control relative to the controls) [1, 5]	Test B rating (100 = 100% disease control, 0 = no disease control relative to the controls) [2, 5]	Test D rating (100 = 100% disease control, 0 = no disease control relative to the controls) [3, 5]	Test A rating (100 = 100% disease control, 0 = no disease control relative to the controls) [4, 5]	Test D rating (100 = 100% disease control, 0 = no disease control relative to the controls) [3, 6] [%]	Test C rating (100 = 100% disease control, 0 = no disease control relative to the controls) [1, 6] [%]	Test B rating (100 = 100% disease control, 0 = no disease control relative to the controls) [2, 6] [%]	Test A rating (100 = 100% disease control, 0 = no disease control relative to the controls) [4, 6] [%]
Cc1nc(Br)c(C(O)c2ccc(F)cc2Cl)n1-c1c(F)cc(Cl)cc1F (stereo not drawn) [compound 116]	0* %	100* %	0* %	99* %				
Cc1nc(Cl)c(C(O)c2ccc(F)cc2Cl)n1-c1c(F)cc(Cl)cc1F (stereo not drawn) [compound 117]	0* %	100* %	0* %	99* %				
OC(c1ccc(F)cc1F)c1c(Cl)ncn1-c1c(F)cc(F)cc1Cl (stereo not drawn) [compound 118]	91* %	100* %		100* %	48			
OC(c1ccc(F)cc1F)c1c(Br)ncn1-c1c(F)cc(Cl)cc1F (stereo not drawn) [compound 119]	97* %	100* %	0* %	98* %				
OC(c1ccc(F)cc1F)c1c(Cl)ncn1-c1c(F)cc(Cl)cc1F (stereo not drawn) [compound 120]	99* %	100* %	0* %	98* %				
OC(c1ccc(F)cc1F)c1c(Cl)nc(Br)n1-c1c(F)cc(F)cc1Cl (stereo not drawn) [compound 121]	100* %	100* %	98* %	100* %				
Cc1ncc(C(O)c2ccc(F)cc2F)n1-c1c(F)cc(Cl)cc1F (stereo not drawn) [compound 122]	0* %	100* %	0* %	98* %				
OC(c1ccc(F)cc1F)c1c(Br)nc(Br)n1-c1c(F)cc(Cl)cc1F (stereo not drawn) [compound 123]	95* %	100* %	0* %	98* %				
OC(c1ccc(F)cc1F)c1c(Br)nc(Cl)n1-c1c(F)cc(Cl)cc1F (stereo not drawn) [compound 124]	100* %	100* %	0* %	100* %				
OC(c1ccc(F)cc1F)c1c(Cl)nc(Br)n1-c1c(F)cc(Cl)cc1F (stereo not drawn) [compound 125]	100* %	100* %	79* %	100* %				
Cc1nc(Br)c(C(O)c2ccc(F)cc2F)n1-c1c(F)cc(Cl)cc1F (stereo not drawn) [compound 126]	0* %	100* %	0* %	96* %				
Cc1nc(Cl)c(C(O)c2ccc(F)cc2F)n1-c1c(F)cc(Cl)cc1F (stereo not drawn) [compound 127]	73* %	100* %	0* %	100* %				
Cc1nc(Cl)c(C(O)c2c(F)cc(F)cc2F)n1-c1ccc(F)cc1Cl (stereo not drawn) [compound 128]					0	99	100	100
Cc1nc(Cl)c(C(O)c2ccc(F)cc2Cl)n1-c1ccc(F)cc1Cl (stereo not drawn) [compound 129]					0	98	100	100
Cc1nc(Cl)c(C(O)c2ccc(F)cc2Cl)n1-c1ccc(F)cc1Br (stereo not drawn) [compound 130]	87* %				0		100	99
Cc1nc(Cl)c(C(O)c2ccc(F)cc2F)n1-c1c(F)cccc1F (stereo not drawn) [compound 131]	99* %	100* %	99* %	100* %				
Cc1ncc(C(O)c2ccc(F)cc2)n1-c1c(F)cccc1F (stereo not drawn) [compound 132]					0	41	100	99
Cc1nc(Br)c(C(O)c2ccc(F)cc2)n1-c1c(F)cccc1F (stereo not drawn) [compound 133]	100* %	100* %	64* %	100* %				
